# From patent publication US12617818B2, “Compositions and methods for modulating myosin subfragment-2 coiled coil stability and methods for using them” (UNIVERSITY OF NORTH TEXAS, priority 2020, dated 2026)
# Assays:
# [1] = biological target: T1, smooth muscle myosin S2 peptide (MYH11) (Homo sapiens, UniProt P35749); experiment: FRET of smooth muscle myosin S2 peptide dimer with anti-S2 peptides; format: binding; conditions: Smooth peptide with Stabilizer
# T1 construct: A 21 residue peptide of the S2 region of MYH11 was matched to the previously synthesized S2 peptide; host or cells: chemical synthesis
# T1 sequence (P35749 926-946): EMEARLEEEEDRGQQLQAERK
# Text: Human smooth muscle myosin heavy chain (MYH11) is a part of the non-striated muscle. This gene can be found within esophagus, endometrium, duodenum, etc. A 21 residue peptide of the S2 region of MYH11 was matched to the previously synthesized S2 peptide of cardiac isoform and chemically synthesized 926-946. Generated amino acid sequence used is as follow: • Smooth: NH2-[…]—COOH (SEQ ID NO:11)
# Resonance energy probes (donor and acceptor) were covalently attached to synthetic myosin S2 peptides of cardiac muscle, E930del cardiac muscle, E924K cardiac muscle, smooth muscle, and skeletal muscle (Aboonasrshiraz, N., 2020).
# Acceptor probe was conjugated to muscle myosin S2 peptides at N-terminus. Muscle myosin S2 peptides were dissolved in 20 mM HEPES buffer at pH 8.0. And FITC was dissolved in few drops of N, N dimethyl formamide. Lastly, FITC and muscle myosin S2 peptide was reacted together in 1 to 1 molar ratio and was let to react for 120 minutes at room temperature. […]
# In FRET assay, Fluorescein Isothiocyanate (FITC) functioned as fluorescent acceptor probe and Terbium Diethylene Triamine Pentaacetic Acid-Cytosine (Lanthanide-DTPA-Cytosine) functioned as donor probe. […] Lifetime of donor probe was measured in milliseconds.
# The specificity of peptides were later tested on the myosin S2 of the smooth muscle (MYH11). […] Calculated separation distance in presence of the stabilizer peptide was 3.34 nm.
# [2] = biological target: T2, cardiac muscle myosin S2 peptide E930del (MYH7 E930del) (Homo sapiens, UniProt P12883, DEL931-931); experiment: GFS, uncoiling of E930del cardiac myosin S2 peptide dimer; format: biochemical; conditions: length 10 nm; in presence of stabilizer; ± SEM
# T2 construct: host or cells: chemical synthesis
# T2 sequence (P12883 with tags, fused parts or gaps DEL931-931): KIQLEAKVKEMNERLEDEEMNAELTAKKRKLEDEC
# Text: 3-aminopropyltriethoxysilane, acetone, coupling buffer (0.01 M pyridine in water with pH 6.0), 5% glutaraldehyde, quenching solution (1 M glycine in water with pH 7.0), blocking buffer (0.01 M Tris, 0.1% sodium azide, 0.1% bovine serum albumin, 0.15 M sodium chloride, and 0.001 M ethylenediaminetetraacetic acid with pH 7.0), wash buffer (0.01 M Tris, 0.1% sodium azide, 0.15 M sodium chloride, and 0.001 M ethylenediaminetetraacetic acid with pH 7.0) low salt buffer (0.1 M potassium chloride, 0.02 M imidazole, 5 mM magnesium chloride, with pH 7.0), 1-ethyl-3-(3-dimethyaminopropyl) carbodiimide, N-hydroxysuccinamide, iodoacetamide-succinimidyl ester, 8M urea solution (50 mM imidazole and 0.1 mM tris (2-carboxyethyl) phosphine with pH 7.0) monodisperse silica beads, glass slides, glass coverslips, vacuum grease, rabbit skeletal myosin, purified actin (G-actin), 1 μM human β-cardiac myosin S2 peptide, 1 μM human β-cardiac mutants myosin S2 peptide (E930del and E924K), 1 μM human skeletal myosin S2 peptide, 1 μM human smooth myosin S2 peptide, stabilizer peptide, and destabilizer peptide. A light microscope with an objective lens of 10× was mounted on an alt-azimuthal mount. A digital video camera of Sony, XCD-V60 was replaced with the ocular lenses. Extension springs on steel bracket held the alt-azimuthal mount suspended.
# Gravitational force spectroscopy (GFS), is a single molecule force spectroscopy that utilizes gravitational force to measure absolute length of a single molecule at the given force calculated by the density of the bead suspending the molecule. This technique was discovered and developed in Root lab, which measures the forces in piconewton and sub-piconewton levels. Other than absolute length of a molecule, GFS measures force range required to uncoil, stretch or extend the molecule yielding a force-distance profile for the suspended molecule. Besides that, based on the force-distance profile, number of amino acids within the molecule can be calculated. […] The GFS allowed to test the flexibility or stability of a single molecule of myosin S2 peptide and also for the S2 peptides treated with anti-S2 peptides. Flexibility of myosin S2 is not dependent on assembly myosin as a thick filament or myosin in its single molecule form. […]
# Free fall mode, another measurement variant of GFS which allows the user to get a force distance profile on a single molecule experiencing the gravitational force. […] During the free fall mode, GFS has a single molecule which is suspended within an immobile edge and mobile bead will now experience the variable force which would be calculated by the product of mass of the bead and the acceleration of the GFS. […]
compound,measurement,setting,value
C[C@H](NC(=O)[C@H](CCCCN)NC(=O)[C@H](Cc1ccccc1)NC(=O)[C@H](CCCCN)NC(=O)[C@H](CCCCN)NC(=O)[C@H](CCCCN)NC(=O)[C@H](CCCCN)NC(=O)[C@H](CCCCN)NC(=O)[C@H](CCCCN)NC(=O)[C@H](CCCCN)NC(=O)[C@@H](N)CCCCN)C(=O)N[C@@H](CCCCN)C(=O)N[C@@H](CCCCN)C(=O)N[C@@H](CCCCN)C(=O)N[C@@H](CCCCN)C(=O)N[C@@H](CCCCN)C(=O)N[C@@H](CCCCN)C(=O)O [Stabilizer],TD (donor lifetime without acceptor),[1],1.73E−03
same,Force required to uncoil S2 molecule,[2],1.07E+00 ± 8.28E−02 pN
